# Measured values: US20100204276A1, “INDOLE COMPOUNDS, A PROCESS FOR THEIR PREPARATION AND PHARMACEUTICAL COMPOSITIONS CONTAINING THEM” (LES LABORATOIRES SERVIER, priority 2006, published 2010)
# What was measured:
# MT1 receptor = MT1 receptor (Homo sapiens, UniProt P48039); assay: Melatonin MT1 receptor binding study (2-[125I]-iodomelatonin competition); details: 2-[125I]-iodomelatonin as radioligand, triplicate
# Description: (§1) The MT1 or MT2 receptor binding experiments are carried out using 2-[^125I]-iodomelatonin as reference radioligand. The radioactivity retained is determined using a liquid scintillation counter.
# (§2) Competitive binding experiments are then carried out in triplicate using the various test compounds. A range of different concentrations is tested for each compound. The results enable the binding affinities (Ki) of the compounds tested to be determined.
# MT2 receptor = biological target: T1, MT2 receptor (Homo sapiens, UniProt P49286); assay: Melatonin MT2 receptor binding study (2-[125I]-iodomelatonin competition); details: 2-[125I]-iodomelatonin as radioligand, triplicate
# T1 sequence (P49286 1-362): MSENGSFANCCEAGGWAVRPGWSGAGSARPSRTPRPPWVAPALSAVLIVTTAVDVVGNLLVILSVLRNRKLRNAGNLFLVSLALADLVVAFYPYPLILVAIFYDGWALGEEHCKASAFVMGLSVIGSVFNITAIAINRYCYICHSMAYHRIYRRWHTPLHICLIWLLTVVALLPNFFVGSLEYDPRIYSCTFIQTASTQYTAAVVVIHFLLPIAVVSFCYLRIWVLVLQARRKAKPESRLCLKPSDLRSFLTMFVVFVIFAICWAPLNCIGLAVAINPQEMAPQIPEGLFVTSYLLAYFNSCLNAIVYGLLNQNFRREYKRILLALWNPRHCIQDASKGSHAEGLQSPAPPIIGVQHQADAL
# Description: as §1, §2
# MT1 receptor, sequence (P48039 whole entry): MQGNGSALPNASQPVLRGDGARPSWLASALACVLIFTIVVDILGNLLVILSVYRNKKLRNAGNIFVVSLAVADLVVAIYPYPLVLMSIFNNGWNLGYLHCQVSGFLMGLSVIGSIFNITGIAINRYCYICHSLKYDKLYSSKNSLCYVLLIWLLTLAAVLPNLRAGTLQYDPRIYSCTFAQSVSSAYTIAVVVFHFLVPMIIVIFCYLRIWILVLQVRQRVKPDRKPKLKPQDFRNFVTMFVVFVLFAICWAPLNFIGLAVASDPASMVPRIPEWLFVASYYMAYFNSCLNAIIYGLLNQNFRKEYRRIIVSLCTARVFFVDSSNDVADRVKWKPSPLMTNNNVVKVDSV
smiles,measurement,setting,value
"CCCC(=O)NCCc1c[nH]c2ccc(OCCN3CCCCC3)cc12 [Example 3, N-(2-{5-[2-(1-piperidinyl)ethoxy]-1H-indol-3-yl}ethyl)butanamide]",Ki,MT1 receptor,11 nM
same,Ki,MT2 receptor,19 nM
same,melting point,,113 to 114 °C
